IC50 data for 31 molecules are collected here from patent US20100249132A1, “IMIDAZOLE DERIVATIVES” (MERCK PATENT GESELLSCHAFT MIT BESCHRANKTER HAFTUNG, priority 2007, published 2010).

Usually IC50 stands for the midpoint of a concentration-inhibition curve.

The target of the experiment is T1, recombinant autotaxin (Homo sapiens, UniProt Q13822).
T1 construct: made in house; host or cells: Hi5 insect cells (baculovirus)
Description: Autotaxin test (enzyme test), Amplex Red fluorescence. It counts as biochemical. Particulars: substrate LPC 75 μM, Amplex Red detection, read-out: IC50 (autotaxin inhibition, enzyme test). The protocol: Autotaxin Inhibition (Enzyme Test)
Autotaxin Test (Enzyme Test)
The autotaxin activity is measured indirectly using Amplex Red reagent. Amplex Red is measured here as fluorogenic indicator for the H2O2 formed. In detail, autotaxin converts the substrate lysophosphatidylcholine (LPC) into phosphocholine and lysophosphatidylic acid (LPA). After this reaction, the phosphocholine is reacted with alkaline phosphatase to give inorganic phosphate and choline. In the next step, choline is oxidised by choline oxidase to give betaine, with formation of H2O2. H2O2 reacts with Amplex Red reagent in the presence of peroxidase (horseradish peroxidase) in a 1:1 stoichiometry and forms the highly fluorescent resorufin. The fluorescence is measured in a reaction-dependent kinetic mode in order that fluorescent signals from possible other fluorescent substances which are not involved in the reaction can be corrected out.
1.5 μl of a standard solution or of the test substances (substances with the name A(n)) in individual concentrations dissolved in 20 mM Hepes pH 7.2 with a maximum of 7.7% of DMSO are pre-incubated together with 10 μl (16 ng) of highly purified recombinant autotaxin in a black microtitre plate provided with 384 wells at 22° C. for 30 min. The reaction is then initiated by addition of 5 μl of L-α-lysophosphatidylcholine (LPC), where the final concentration of LPC is 75 μM. The mixture is incubated at 37° C. for 90 min. After the incubation, Amplex Red reagent, peroxidase (horseradish peroxidase) and choline oxidase is added, and the fluorescence is immediately measured at 612 nm with excitation of 485 nm in a “Tecan Ultra multimode” reader. The activity of autotaxin is calculated indirectly via detection of the H2O2 formed. • Material: • Microtitre plate: PS microplate, 384 wells, small volume, black Corning, Cat #3677 • Protein: recombinant autotaxin (Baculovirale Hi5 Expression) • Substrate: L-α-lysophosphatidylcholine (chicken egg)); Avanti Polar Lipids #830071 P • Standard: C14 LPA, Avanti Polar Lipids, Cat #857120P • Detection reagent: Amplex Red reagent; Invitrogen #A12222; dissolved in 1.923 ml of DMSO peroxidase type VI-A (horseradish) from Sigma #P6782; dissolved in 7.45 ml of test buffer, choline oxidase; Sigma #C5896; dissolved in 2.47 ml of test buffer • Detection reagent mix: 1:100 dilution of Amplex Red reagent in test buffer • Test buffer: 200 mM Tris HCl, Merck, Cat #1.08219, pH 7.9, 0.1% of BSA, lipid-free, Roche Cat #775835
As to `Cc1ccccc1NC(=O)Nc1[nH]c(Cc2ccc(C(=O)O)s2)nc1C(N)=O` [Compound A67, 5-[4-Carbamoyl-5-(3-o-tolylureido)-1H-imidazol 2-ylmethyl]thiophene-2-carboxylic acid], the IC50 was over 10 µM.

As for `NC(=O)c1nc(Cc2ccc(OCC(=O)O)cc2)[nH]c1NC(=O)Nc1cc(C(F)(F)F)ccc1F` [Compound A44, (4-{4-Carbamoyl-5-[3-(2-fluoro-5-trifluoromethyl-phenyl)ureido]-1H-imidazol-2-ylmethyl}phenoxy)-acetic acid], the IC50 is over 10 µM. Under `CC(C)c1ccccc1NC(=O)Nc1[nH]c(Cc2ccc(C(=O)O)cc2)nc1C(N)=O` [Compound A92, 4-{4-Carbamoyl-5-[3-(2-isopropylphenyl)ureido]-1H-imidazol-2-ylmethyl}benzoic acid] stands over 10 µM.

For the molecule `NC(=O)c1nc(Cc2ccc(OCC(=O)O)cc2)[nH]c1NC(=O)Nc1ccc(Oc2ccccc2)cc1` [Compound A45, (4-{4-Carbamoyl-5-[3-(4-phenoxyphenyl)ureido]-1H-imidazol-2-ylmethyl}phenoxy)acetic acid], the IC50 is over 10 µM. Regarding `CC(C)c1ccc(NC(=O)Nc2[nH]c(Cc3ccc(C(=O)O)o3)nc2C(N)=O)cc1` [Compound A12, 5-{4-Carbamoyl-5-[3-(4-isopropylphenyl)ureido]-1H-imidazol-2-ylmethyl}furan-2-carboxylic acid], the IC50 was in the range of 1 to 10 µM.

For the molecule `CCc1ccc(NC(=O)Nc2[nH]c(Cc3ccc(C(=O)O)s3)nc2C(N)=O)cc1` [Compound A72, 5-{4-Carbamoyl-5-[3-(4-ethylphenyl)ureido]-1H-imidazol-2-ylmethyl}thiophene-2-carboxylic acid], the IC50 was 1 to 10 µM. Under `NC(=O)c1nc(COc2ccc(CC(=O)O)cc2)[nH]c1NC(=O)Nc1ccc(F)c(C(F)(F)F)c1` [Compound A64, (4-{4-Carbamoyl-5-[3-(4-fluoro-3-trifluoromethyl-phenyl)ureido]-1 H-imidazol-2-ylmethoxy}phenyl)-acetic acid] stands over 10 µM; under “5-[3-(4-Butylphenyl)ureido]-2-(5-cyclopropyl-carbamoylfuran-2-ylmethyl)-1H-imidazole-4-carboxamide [Compound A89]”, over 10 µM. Consider `NC(=O)c1nc(Cc2ccc(C(=O)O)cc2)[nH]c1NC(=O)Nc1cc(C(F)(F)F)ccc1F` [Compound A17, 4-{4-Carbamoyl-5-[3-(2-tluoro-5-trifluoromethyl-phenyl)ureido]-1H-imidazol-2-ylmethyl}benzoic acid], for which the concentration for half-maximal inhibition (IC50) is over 10 µM. As to `CCc1ccc(NC(=O)Nc2[nH]c(COc3ccc(CC(=O)O)cc3)nc2C(N)=O)cc1` [Compound A61, (4-{4-Carbamoyl-5-[3-(4-ethylphenyl)ureido]-1H-imidazol-2-ylmethoxy}phenyl)acetic acid], the IC50 lay within 1 to 10 µM.

As to `CCCCc1ccc(NC(=O)Nc2[nH]c(Cc3ccc(C(=O)O)cc3)nc2C(N)=O)cc1` [Compound A3, 4-{5-[3-(4-Butylphenyl)ureido]-4-carbamoyl-1H-imidazol-2-ylmethyl}benzoic acid], the IC50 was over 10 µM.

Consider `CCCCOc1ccc(NC(=O)Nc2[nH]c(Cc3ccc(C(=O)O)cc3)nc2C(N)=O)cc1` [Compound A9, 4-{5-[3-(4-Butoxyphenyl)ureido]-4-carbamoyl-1H-imidazol-2-ylmethyl}benzoic acid], for which the IC50 fell in the range of 1 to 10 µM. To `CCCCc1ccc(NC(=O)Nc2[nH]c(-c3ccc(OCC(=O)O)cc3)nc2C(N)=O)cc1` [Compound A52, (4-{5-[3-(4-Butylphenyl)ureido]-4-carbamoyl-1H-imidazol-2-yl}phenoxy)acetic acid] belongs over 10 µM; to `CC(C)c1ccc(NC(=O)Nc2[nH]c(Cc3ccc(OCC(=O)O)cc3)nc2C(N)=O)cc1` [Compound A1, (4-{4-carbamoyl-5-[3-(4-isopropylphenyl)ureido]-1H-imidazol-2-ylmethyl}phenoxy)acetic acid], 1 to 10 µM; to `CC(C)(CCc1nc(C(N)=O)c(NC(=O)Nc2ccc(Cl)cc2)[nH]1)C(=O)O` [Compound B75], over 10 µM.

As to `CCc1ccc(NC(=O)Nc2[nH]c(-c3ccc(OCC(=O)O)cc3)nc2C(N)=O)cc1` [Compound A54, (4-{4-Carbamoyl-5-[3-(4-ethylphenyl)ureido]-1H-imidazol-2-yl}phenoxy)acetic acid], the IC50 lay within 1 to 10 µM. To `CCCCc1ccc(NC(=O)Nc2[nH]c(Cc3ccc(C(=O)N(C)c4ccccc4)o3)nc2C(N)=O)cc1` [Compound A84, 5-[3-(4-Butylphenyl)ureido]-2-[5-(methylphenyl-carbamoyl)furan-2-ylmethyl]-1H-imidazole-4-carboxamide] belongs 1 to 10 µM; to `Cc1oc(-c2ccccc2)cc1NC(=O)Nc1[nH]c(Cc2ccc(C(=O)O)cc2)nc1C(N)=O` [Compound A101, 4-{4-Carbamoyl-5-[3-(2-methyl-5-phenylfuran-3-yl)ureido]-1H-imidazol-2-ylmethyl}benzoic acid], over 10 µM; to `CC(C)c1ccc(NC(=O)Nc2[nH]c(Cc3ccc(C(=O)O)cc3)nc2C(N)=O)cc1` [Compound A2, 4-{4-Carbamoyl-5-[3-(4-isopropylphenyl)ureido]-1H-imidazol-2-ylmethyl}benzoic acid], 1 to 10 µM. Under `CC(C)c1ccc(NC(=O)Nc2[nH]c(COc3ccc(CC(=O)O)cc3)nc2C(N)=O)cc1` [Compound A57, (4-{4-Carbamoyl-5-[3-(4-isopropylphenyl)ureido]-1H-imidazol-2-ylmethoxy}phenyl)acetic acid] stands 1 to 10 µM; under `NC(=O)c1nc(-c2ccc(CC(=O)O)cc2)[nH]c1NC(=O)Nc1ccc(Cl)cc1` [Compound A22, (4-{4-Carbamoyl-5-[3-(4-chlorophenyl)ureido]-1H-imidazol-2-yl}phenyl)acetic acid], over 10 µM; under `Cc1ccc(NC(=O)Nc2[nH]c(Cc3ccc(C(=O)O)s3)nc2C(N)=O)cc1` [Compound A69, 5-[4-Carbamoyl-5-(3-p-tolylureido)-1H-imidazol 2-ylmethyl]thiophene-2-carboxylic acid], over 10 µM. Take `COC(=O)c1ccc(Cc2nc(C(N)=O)c(NC(=O)Nc3ccc(C(F)(F)F)cc3)[nH]2)cc1` [Compound A98, Methyl 4-{4-carbamoyl-5-[3-(4-trifluoromethyl-phenyl)ureido]-1H-imidazol-2-ylmethyl}benzoate]: the IC50 is over 10 µM. On to `CCc1ccc(NC(=O)Nc2[nH]c(-c3ccc(C(=O)O)cc3)nc2C(N)=O)cc1` [Compound A19, 4-{4-Carbamoyl-5-[3-(4-ethylphenyl)ureido]-1H-imidazol-2-yl}benzoic acid], for which the IC50 was over 10 µM. For `NC(=O)c1nc(-c2ccc(CC(=O)O)cc2)[nH]c1NC(=O)Nc1ccc(C(F)(F)F)cc1` [Compound A20, (4-{4-Carbamoyl-5-[3-(4-trifluoromethylphenyl)-ureido]-1H-imidazol-2-yl}phenyl)acetic acid], the IC50 is over 10 µM. On to `NC(=O)c1nc(Cc2ccc(OCC(=O)O)cc2)[nH]c1NC(=O)c1cc(-c2ccc(Cl)cc2)n[nH]1` [Compound B82], for which the IC50 was over 10 µM.

Consider `CCc1cccc(CC)c1NC(=O)Nc1[nH]c(Cc2ccc(C(=O)O)o2)nc1C(N)=O` [Compound A28, 5-{4-Carbamoyl-5-[3-(2,6-diethylphenyl)ureido]-1H-imidazol-2-ylmethyl}furan-2-carboxylic acid], for which the IC50 is over 10 µM. Under `Cc1cccc(C)c1NC(=O)Nc1[nH]c(Cc2ccc(C(=O)O)cc2)nc1C(N)=O` [Compound A16, 4-{4-Carbamoyl-5-[3-(2,6-dimethylphenyl)-ureido]-1H-imidazol-2-ylmethyl}benzoic acid] stands over 10 µM; under `NC(=O)c1nc(Cc2ccc(C(=O)O)s2)[nH]c1NC(=O)Nc1ccc(C(F)(F)F)cc1` [Compound A66, 5-{4-Carbamoyl-5-[3-(4-trifluoromethylphenyl)-ureido]-1H-imidazol-2-ylmethyl}thiophene-2-carboxylic acid], 1 to 10 µM.

In the case of `CCCCCc1ccc(NC(=O)Nc2[nH]c(Cc3ccc(OCC(=O)O)cc3)nc2C(N)=O)cc1` [Compound A43, (4-{4-Carbamoyl-5-[3-(4-pentylphenyl)ureido]-1 H-imidazol-2-ylmethyl}phenoxy)acetic acid], the IC50 was in the range of 1 to 10 µM.

In the case of `CCc1ccc(NC(=O)Nc2[nH]c(Cc3ccc(C(=O)O)cc3)nc2C(N)=O)cc1` [Compound A7, 4-{4-Carbamoyl-5-[3-(4-ethylphenyl)ureido]-1H imidazol-2-ylmethyl}benzoic acid], the IC50 is 1 to 10 µM.
